{
  "source": "patent US9669242B2",
  "about": "“Compositions containing at least two phenolic compounds, a lipid-soluble antioxidant and at least one hydrotrope for cosmetic use” (L'OREAL, priority 2013, dated 2017)",
  "key": {"[1]": {"experiment": "Solubility of phenolic compounds and caffeine in water without hydrotropes", "settings": "for solubility: in water", "description": "Baicalin, a component of Chinese medicinal herb Huang-chin, is a flavone, a type of flavonoid."}, "[2]": {"experiment": "Solubility of baicalin in organic solvent PEG-4", "format": "physicochemical", "description": "Crystallization or precipitation occurs after mixing the glycol phase and water phase."}, "[3]": {"experiment": "Oxygen Radical Absorbance Capacity (ORAC) assay", "format": "biochemical", "settings": "individual values, known activity of each antioxidant", "from_the_text": "The ORAC assay measures the oxidative degradation of the fluorescent probe (fluorescein) after being mixed with free radical generators such as azo-initiator compounds (2,2′-Azobis(2-amidinopropane)dihydrochloride, AAPH). Azo-initiators are considered to produce the peroxyl radical by heating, which damages the fluorescent molecule, resulting in the loss of fluorescence. Antioxidants are considered to protect the fluorescent molecule from the oxidative degeneration. By quantifying the decay of fluorescence using a fluorometer, the degree of protection is determined comparing with a standard control antioxidant Trolox. The result is expressed in μmol equivalent of Trolox per gram of sample (i.e., μmolTE/g).\nTo test samples by using ORAC, compounds are dissolved into water-based NaH2PO4 buffer."}, "[4]": {"experiment": "HORAC assay (hydroxyl radical averting capacity)", "format": "biochemical", "settings": "individual values, known activity of each antioxidant", "from_the_text": "The Varioskan Flash is employed for the quantification of the capacity of an antioxidant to avert the hydroxyl radical. The hydroxyl radical, generated from hydrogen peroxide and Cobalt (II) fluoride, will quench a fluorescent probe by a hydrogen atom transfer reaction. In the presence of an antioxidant, however, the molecule will chelate the Co(II), preventing the generation of the hydroxyl radical and initially block or prevent the quenching of the probe, causing a delay in the fluorescence decay profile. The area under the fluorescence decay curves for samples with and without the presence of an antioxidant molecule are compared to that of a standard reference material and the hydroxyl radical averting capacity is determined\nBy quantifying the decay of fluorescence using a fluorometer, the degree of protection is determined by comparison with a standard control antioxidant Gallic Acid (standard reference material). The result is expressed in μmol equivalent of Gallic Acid per gram of sample (i.e., μmolGAE/g).\nTo test samples by using HORAC, compounds are dissolved into water-based NaH2PO4 buffer."}, "[5]": {"experiment": "pH stability of baicalin in water", "format": "physicochemical"}, "[6]": {"experiment": "Solubility in water with hydrotropes (nicotinamide, caffeine)", "settings": "5% nicotinamide and 5% caffeine"}},
  "note": "Read-outs that look alike come from different tables or passages of the source.",
  "data": [
    {"compound": "O=C(O)[C@H]1O[C@@H](Oc2cc3oc(-c4ccccc4)cc(=O)c3c(O)c2O)[C@H](O)[C@@H](O)[C@@H]1O", "note": "[Baicalin]", "values": [
      {"measurement": "solubility in water", "setting": "[1]; at its natural pH ~4.5", "value": "< 0.01", "unit": "%"},
      {"measurement": "solubility", "setting": "[1]; pH 3", "value": 0.0016, "unit": "%"},
      {"measurement": "solubility", "setting": "[1]; pH 3.5", "value": 0.0021, "unit": "%"},
      {"measurement": "solubility", "setting": "[1]; pH 4", "value": 0.0040, "unit": "%"},
      {"measurement": "solubility", "setting": "[1]; pH 4.5", "value": 0.0084, "unit": "%"},
      {"measurement": "solubility", "setting": "[1]; pH 5", "value": 0.035, "unit": "%"},
      {"measurement": "water solubility", "setting": "[1]; no hydrotrope", "value": "< 0.01", "unit": "%"},
      {"measurement": "Solubility in water without hydrotropes", "setting": "[1]; without hydrotropes", "value": "<0.01 % (w/w)"},
      {"measurement": "baicalin dissolved by PEG-4", "setting": "[2]", "value": 3, "unit": "%"},
      {"measurement": "ORAC", "setting": "[3]", "value": 4759, "unit": "μmolTE/g"},
      {"measurement": "HORAC", "setting": "[4]", "value": 2592, "unit": "μmolGAE/g"},
      {"measurement": "pH at which degradation happens", "setting": "[5]", "value": "> 5"}
    ]},
    {"compound": "O=c1oc2c(O)c(O)cc3c(=O)oc4c(O)c(O)cc1c4c23", "note": "[Ellagic acid]", "values": [
      {"measurement": "Solubility in water without hydrotropes", "setting": "[1]", "value": "<0.001 % (w/w)"}
    ]},
    {"compound": "COc1ccc([C@@H]2CC(=O)c3c(O)cc(O[C@@H]4O[C@H](CO)[C@@H](O)[C@H](O)[C@H]4O[C@@H]4O[C@@H](C)[C@H](O)[C@@H](O)[C@H]4O)cc3O2)cc1O", "note": "[Neohesperidin]", "values": [
      {"measurement": "Solubility in water without hydrotropes", "setting": "[1]", "value": "<0.05 % (w/w)"}
    ]},
    {"compound": "Oc1ccc(C=Cc2cc(O)cc(O)c2)cc1", "note": "[Resveratrol]", "values": [
      {"measurement": "Solubility in water without hydrotropes", "setting": "[1]", "value": "<0.005 % (w/w)"}
    ]},
    {"compound": "O=C1c2c(O)cc(O)cc2O[C@H](c2ccc(O)c(O)c2)[C@H]1O", "note": "[Taxifolin]", "values": [
      {"measurement": "Solubility in water without hydrotropes", "setting": "[1]; without hydrotropes", "value": "<0.1 % (w/w)"},
      {"measurement": "Solubility in water with hydrotropes", "setting": "[6]", "value": ">1 % (w/w)"}
    ]},
    {"compound": "tocopherol [VIT. E (tocopherol)]", "values": [
      {"measurement": "ORAC", "setting": "[3]", "value": 1000, "unit": "μmolTE/g"}
    ]}
  ]
}
